Laboratory results reported in ChEMBL document CHEMBL3227932, “Conformations, DNA binding parameters, and antileukemic activity of certain cytotoxic protoberberine alkaloids” (J Med Chem, 1979).
In brackets after ≈: the same amount, converted by molar mass.

How the values were obtained:
[1] = tested on: Mus musculus; test: Toxicity in mouse P388 cells allografted mouse at 50 mg/kg; assay type: organism-based; design: dose 50 mg/kg; details: in vivo
[2] = tested on: Mus musculus; test: Toxicity in mouse P388 cells allografted mouse at 12.5 mg/kg; assay type: organism-based; design: dose 12.5 mg/kg; details: in vivo
[3] = tested on: P388; test: Antitumor activity against mouse P388 cells allografted in mouse at 12.5 mg/kg; assay type: functional
[4] = tested on: Mus musculus; test: Toxicity in mouse P388 cells allografted mouse at 100 mg/kg; assay type: organism-based; design: dose 100 mg/kg; details: in vivo
[5] = tested on: P388; test: Antitumor activity against mouse P388 cells allografted in mouse at 3.13 mg/kg; assay type: functional
[6] = tested on: P388; test: Antitumor activity against mouse P388 cells allografted in mouse at 6.25 mg/kg; assay type: functional
[7] = tested on: Mus musculus; test: Toxicity in mouse P388 cells allografted mouse at 3.13 mg/kg; assay type: organism-based; design: dose 3.13 mg/kg; details: in vivo
[8] = tested on: Mus musculus; test: Toxicity in mouse P388 cells allografted mouse at 200 mg/kg; assay type: organism-based; design: dose 200 mg/kg; details: in vivo
[9] = tested on: KB; test: Cytotoxicity against human KB cells; assay type: functional; details: read-out: ED50 (the source's name)
[10] = tested on: Mus musculus; test: Toxicity in mouse P388 cells allografted mouse at 6.25 mg/kg; assay type: organism-based; design: dose 6.25 mg/kg; details: in vivo
[11] = tested on: Mus musculus; test: Toxicity in mouse P388 cells allografted mouse at 400 mg/kg; assay type: organism-based; design: dose 400 mg/kg; details: in vivo
[12] = tested on: P388; test: Antitumor activity against mouse P388 cells allografted in mouse at 25 mg/kg; assay type: functional
[13] = tested on: Mus musculus; test: Toxicity in mouse P388 cells allografted mouse at 25 mg/kg; assay type: organism-based; design: dose 25 mg/kg; details: in vivo
[14] = tested on: P388; test: Antitumor activity against mouse P388 cells allografted in mouse at 50 mg/kg; assay type: functional
[15] = tested on: P388; test: Antitumor activity against mouse P388 cells allografted in mouse at 400 mg/kg; assay type: functional
[16] = tested on: P388; test: Antitumor activity against mouse P388 cells allografted in mouse at 200 mg/kg; assay type: functional
[17] = tested on: P388; test: Antitumor activity against mouse P388 cells allografted in mouse at 100 mg/kg; assay type: functional

Row | SMILES | Activity [1] | Activity [2] | T/C [3] | Activity [4] | T/C [6] | Activity [8] | EC50 [9] [µg/mL] | Activity [10] | Activity [11] | also measured
1 | COc1cc2c(cc1OC)-c1c(C)c3ccc(OC)c(OC)c3c[n+]1CC2.[Cl-] | Toxic | Non-toxic | 107 | Toxic | 102 | Toxic | 4.76 | Non-toxic | Toxic | T/C [5]: 105; Activity [7]: Non-toxic
2 | COc1cc2c[n+]3c(c(C)c2cc1OC)-c1cc2c(cc1CC3)OCO2.[I-] |  | Non-toxic | 113 | Toxic | 106 | Toxic | 2.98 | Non-toxic | Toxic | T/C [12]: 116; Activity [13]: Non-toxic
3 | COc1cc2c(cc1OC)[C@H](CO)[C@H]1c3cc4c(cc3CCN1C2)OCO4 (relative stereo) |  |  |  |  |  |  | > 100 |  |  | 
4 | COc1cc2c(cc1OC)[C@@H](CO)[C@H]1c3cc4c(cc3CCN1C2)OCO4 (relative stereo) | Non-toxic |  |  | Non-toxic |  | Non-toxic | 2.65 (≈ 7.17 µM) |  | Non-toxic | T/C [14]: 115; T/C [15]: 129; T/C [16]: 105; T/C [17]: 98
5 | COc1cc2c(cc1OC)[C@H](C)[C@H]1c3cc4c(cc3CCN1C2)OCO4 (relative stereo) |  |  |  |  |  |  | > 100 |  |  | 
6 | COc1cc2c(cc1OC)[C@@H](C)[C@H]1c3cc4c(cc3CCN1C2)OCO4 (relative stereo) |  |  |  |  |  |  | 0.47 (≈ 1.33 µM) |  |  | 
